Measurements reported in PMC12336439 (Archiv Der Pharmazie, 2025).
Several values for one entry are separate records, joined by “and”; a condition that tells them apart may be missing. Equal entries are not always repeated. Entries after “also recorded” stand apart in the source; their conditions may differ.

Columns and labels:
Format in all cases: binding
[1] = target: T1, USP7asoc (active site only cysteine) (Homo sapiens, UniProt Q93009, C300S/C315S/C334S/C478S/C488S/C510S); test: Differential scanning fluorimetry (DSF), melting temperature shift of USP7asoc mutant; details: 8 µM protein, 250 µM compound (1:31.25)
T1 construct: (208‐560, C300/315/334/448/478/510S); made in house
Description: USP7asoc only retains the catalytic Cys223 while all the other six cysteines are mutated to serine. DSF was selected for initial assessment since it is an efficient and rapid primary screening method readily available to our lab. […] An important consideration when assessing covalent inhibitors is the time dependence of covalent target occupancy and thus potency, which is determined by the reaction kinetics of the covalent binding event. To allow for drawing conclusions on compounds with slower reaction kinetics, incubation times of 30 min, 4 h, and 24 h at 20°C were chosen for the DSF screen with USP7 (Table 1 and Figures 2 and 3). The threshold at which compounds were considered (de‐)stabilizers was defined at 0.5°C. In parallel, the intrinsic reactivity of a set of representative compounds was evaluated in a glutathione reactivity assay. […] The expression and purification of USP7 catalytic domain (USP7CD) (208‐560) and USP7asoc (active site only cysteine) by using a pET24a(+)_HLT_USP7 construct were performed as previously described. […] For the USP7asoc, six of the seven cysteines are mutated to serines (208‐560, C300/315/334/448/478/510S). All utilized protein sequences are depicted in Supporting Information S2: Table S.3.1. The melting temperatures of USP7 and USP7asoc in the presence or absence of fragments were determined by DSF on a Qiagen Rotor‐Q Model‐5‐Plex HRM real‐time PCR instrument (Qiagen, Hilden, Germany). SYPRO Orange (Life Technologies Corporation, Eugene, OR, USA) was used as a fluorescent dye at a final concentration of 5x. The protein concentration was 8 µM, and the final compound concentration was 250 µM, corresponding to a protein‐to‐compound ratio of 1:31.25. All compounds were dissolved in dimethyl sulfoxide (DMSO) and the proteins in Tris buffer (25 mM Tris pH 8.0, 150 mM NaCl, 5 mM TCEP, 5% (v/v) DMSO). All measurements were performed after 30 min, 4 h, and 24 h of incubation and at least in triplicate. DSF experiments were carried out with a constant heating rate of 270°C/h. The temperature was ramped from 28°C to 60°C–70°C with excitation and emission filters set at 470 nm and 610 nm, respectively. The melting temperatures (T m) of USP7 and USP7asoc were determined from the maxima of the first derivatives of the melting curves in OriginPro2020 (OriginLab, Northampton, MA, USA). The ∆T m was calculated by subtraction of the T m of the protein sample with pure DMSO from the T m of the protein sample mixed with compound. Error propagation was used to average multiple runs for a compound. A compound was considered to be a hit if the shift in the ∆T m was at least 0.50°C [55].

USP7 [2] = target: T2, USP7 (Homo sapiens, UniProt Q93009); test: Differential scanning fluorimetry (DSF), melting temperature shift of USP7; details: 8 µM protein, 250 µM compound (1:31.25)
T2 construct: USP7 catalytic domain (USP7CD) (208‐560); made in house
Text: The influence of the synthesized compounds on the melting temperature (T m) of USP7 and its mutant USP7asoc (active site only cysteine) was investigated by DSF. USP7asoc only retains the catalytic Cys223 while all the other six cysteines are mutated to serine. DSF was selected for initial assessment since it is an efficient and rapid primary screening method readily available to our lab.
An important consideration when assessing covalent inhibitors is the time dependence of covalent target occupancy and thus potency, which is determined by the reaction kinetics of the covalent binding event. To allow for drawing conclusions on compounds with slower reaction kinetics, incubation times of 30 min, 4 h, and 24 h at 20°C were chosen for the DSF screen with USP7 (Table 1 and Figures 2 and 3). The threshold at which compounds were considered (de‐)stabilizers was defined at 0.5°C. In parallel, the intrinsic reactivity of a set of representative compounds was evaluated in a glutathione reactivity assay. […] Data obtained from the GSH reactivity studies are shown in Supporting Information S2: Table S2.1 and Figures S2.1–2.3.
The melting temperatures of USP7 and USP7asoc in the presence or absence of fragments were determined by DSF on a Qiagen Rotor‐Q Model‐5‐Plex HRM real‐time PCR instrument (Qiagen, Hilden, Germany). SYPRO Orange (Life Technologies Corporation, Eugene, OR, USA) was used as a fluorescent dye at a final concentration of 5x. The protein concentration was 8 µM, and the final compound concentration was 250 µM, corresponding to a protein‐to‐compound ratio of 1:31.25. All compounds were dissolved in dimethyl sulfoxide (DMSO) and the proteins in Tris buffer (25 mM Tris pH 8.0, 150 mM NaCl, 5 mM TCEP, 5% (v/v) DMSO). All measurements were performed after 30 min, 4 h, and 24 h of incubation and at least in triplicate. DSF experiments were carried out with a constant heating rate of 270°C/h. The temperature was ramped from 28°C to 60°C–70°C with excitation and emission filters set at 470 nm and 610 nm, respectively. The melting temperatures (T m) of USP7 and USP7asoc were determined from the maxima of the first derivatives of the melting curves in OriginPro2020 (OriginLab, Northampton, MA, USA). The ∆T m was calculated by subtraction of the T m of the protein sample with pure DMSO from the T m of the protein sample mixed with compound. Error propagation was used to average multiple runs for a compound. A compound was considered to be a hit if the shift in the ∆T m was at least 0.50°C [55].

USP7 [3] = target: T2, USP7; test: Intact protein MS (UHPLC-ESI-MS), covalent modification of USP7; details: 24 h incubation at 20°C, protein-to-compound ratio 1:31.25
Description: The DSF results described above were validated by UHPLC‐ESI‐MS to verify possible covalent binding through a corresponding mass shift. Intact protein MS is an important screening method in irreversible‐covalent hit identification and is especially suitable for covalent fragment‐based drug discovery (FBDD). It allows for the identification of covalent binders by detecting covalent protein‐compound adducts, thus making use of the stability of the covalent bond.
USP7 was prepared in Tris buffer (25 mM Tris pH 8.0, 150 mM NaCl, 5 mM TCEP) with a protein‐to‐compound ratio of 1:31.25 and 5% (v/v) DMSO. The protein‐compound mixtures were all incubated at 20°C for 24 h on a rotating shaker. The analysis of intact protein mass was carried out using UHPLC‐ESI‐MS measurements, with data acquisition and data analysis as previously described.

USP7asoc = target: T3, USP7asoc (Homo sapiens, UniProt Q93009, C300S/C315S/C334S/C478S/C488S/C510S); test: Intact protein MS (UHPLC-ESI-MS), covalent modification of USP7asoc; details: 24 h incubation at 20°C, protein-to-compound ratio 1:31.25
T3 construct: (208‐560, C300/315/334/448/478/510S); made in house
Description: The DSF results described above were validated by UHPLC‐ESI‐MS to verify possible covalent binding through a corresponding mass shift. Intact protein MS is an important screening method in irreversible‐covalent hit identification and is especially suitable for covalent fragment‐based drug discovery (FBDD). It allows for the identification of covalent binders by detecting covalent protein‐compound adducts, thus making use of the stability of the covalent bond. USP7 was prepared in Tris buffer (25 mM Tris pH 8.0, 150 mM NaCl, 5 mM TCEP) with a protein‐to‐compound ratio of 1:31.25 and 5% (v/v) DMSO. The protein‐compound mixtures were all incubated at 20°C for 24 h on a rotating shaker. The analysis of intact protein mass was carried out using UHPLC‐ESI‐MS measurements, with data acquisition and data analysis as previously described.

T1 sequence (Q93009 with tags, fused parts or gaps C300S/C315S/C334S/C478S/C488S/C510S): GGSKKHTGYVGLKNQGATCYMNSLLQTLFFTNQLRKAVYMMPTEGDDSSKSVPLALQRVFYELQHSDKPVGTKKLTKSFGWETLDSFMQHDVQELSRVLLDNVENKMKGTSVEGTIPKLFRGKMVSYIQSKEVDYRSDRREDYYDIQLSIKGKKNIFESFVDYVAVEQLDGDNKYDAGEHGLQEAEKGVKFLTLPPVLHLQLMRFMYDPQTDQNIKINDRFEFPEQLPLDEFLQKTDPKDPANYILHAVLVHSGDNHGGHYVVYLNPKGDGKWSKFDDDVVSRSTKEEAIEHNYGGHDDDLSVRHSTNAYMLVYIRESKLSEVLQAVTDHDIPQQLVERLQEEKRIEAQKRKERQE
T3 sequence (Q93009 with tags, fused parts or gaps C300S/C315S/C334S/C478S/C488S/C510S): as above
T2 sequence (Q93009 with tags, fused parts or gaps): as the sequence (Q93009 with tags, fused parts or gaps C300S/C315S/C334S/C478S/C488S/C510S) above, with S96C, S111C, S130C, S274C, S284C, S306C counted along it

Row | Structure (SMILES) | ∆T m ± SD USP7asoc ([1]; 30 min incubation at 20°C) | ∆T m ± SD USP7asoc ([1]; 4 h incubation at 20°C) | ∆T m ± SD USP7 (USP7 [2]; 30 min incubation at 20°C) | protein species in deconvoluted mass spectrum of USP7 (USP7 [3]) | protein species in deconvoluted mass spectrum of USP7asoc (USP7asoc) | ∆T m ± SD USP7asoc ([1]; 24 h incubation at 20°C) | ∆T m ± SD USP7 (USP7 [2]; 4 h incubation at 20°C) | ∆T m ± SD USP7 (USP7 [2]; 24 h incubation at 20°C)
1 | O=[N+]([O-])c1ccc(F)nc1Nc1cc2c(-c3cnn(CCO)c3)cccc2cn1 [7f, 2‐(4‐{3‐[(6‐Fluoro‐3‐nitropyridin‐2‐yl)amino]isoquinolin‐5‐yl}‐1H‐pyrazol‐1‐yl)ethan‐1‐ol] | 0.48 ± 0.09 °C | –0.23 ± 0.08 °C | 0.00 ± 0.12 °C | single‐arylated USP7 and USP7asoc as a main signal | single‐arylated USP7 and USP7asoc as a main signal | – | – | –
2 | O=[N+]([O-])c1ccc(F)nc1Nc1cc2c(-c3ccc4ccccc4c3)cccc2cn1 [7g, N‐(6‐Fluoro‐3‐nitropyridin‐2‐yl)‐5‐(naphthalen‐2‐yl)isoquinolin‐3‐amine] | 0.63 °C and 0.63 ± 0.07 °C | 0.25 ± 0.10 °C | 0.10 ± 0.12 °C | mainly displayed the unmodified USP7 and USP7asoc species | mainly displayed the unmodified USP7 and USP7asoc species | 0.38 ± 0.06 °C | 0.30 ± 0 °C | 0.25 ± 0.09 °C
3 | O=[N+]([O-])c1ccc(F)nc1Nc1cc2c(-c3ccc(-c4cccnc4)cc3)cccc2cn1 [7h, N‐(6‐Fluoro‐3‐nitropyridin‐2‐yl)‐5‐[4‐(pyridin‐3‐yl)phenyl]isoquinolin‐3‐amine] | 0.30 ± 0 °C | 0.35 ± 0.09 °C | 0.00 ± 0.12 °C | the unmodified protein species was again dominant; also recorded: unmodified USP7 and USP7asoc as the main peak | the unmodified protein species was again dominant; also recorded: unmodified USP7 and USP7asoc as the main peak | 0.35 ± 0.04 °C | 0.15 ± 0 °C | 0.20 ± 0.09 °C
4 | Cn1ccc(-c2cccc3cnc(Nc4nc(Cl)ccc4[N+](=O)[O-])cc23)c1 [8b, N‐(6‐Chloro‐3‐nitropyridin‐2‐yl)‐5‐(1‐methyl‐1H‐pyrrol‐3‐yl)isoquinolin‐3‐amine] | –0.30 ± 0 °C | 0.35 ± 0.09 °C | – | unmodified protein species was dominant with an additional smaller signal of the mono‐arylated species | only showed unmodified protein for USP7asoc | 0.45 ± 0 °C | –0.10 ± 0.09 °C | 0.15 ± 0.09 °C
5 | CCn1cc(-c2cccc3cnc(Nc4nc(Cl)ccc4[N+](=O)[O-])cc23)cn1 [8c, N‐(6‐Chloro‐3‐nitropyridin‐2‐yl)‐5‐(1‐ethyl‐1H‐pyrazol‐4‐yl)isoquinolin‐3‐amine] | 0.05 ± 0.09 °C | 0.25 ± 0.12 °C | –0.15 ± 0.12 °C | only unmodified USP7 and USP7asoc were detected with a smaller peak corresponding to the single‐arylated protein species | only unmodified USP7 and USP7asoc were detected with a smaller peak corresponding to the single‐arylated protein species | 0.33 ± 0.08 °C | 0.15 ± 0 °C | 0.15 ± 0 °C
6 | CCCn1cc(-c2cccc3cnc(Nc4nc(Cl)ccc4[N+](=O)[O-])cc23)cn1 [8d, N‐(6‐Chloro‐3‐nitropyridin‐2‐yl)‐5‐(1‐propyl‐1H‐pyrazol‐4‐yl)isoquinolin‐3‐amine] | –0.20 ± 0.09 °C | 0.45 ± 0.12 °C | 0.25 ± 0.09 °C | unmodified USP7 and USP7asoc were again dominant | unmodified USP7 and USP7asoc were again dominant | 0.42 ± 0.16 °C | 0.30 ± 0 °C | 0.25 ± 0.09 °C
7 | O=[N+]([O-])c1ccc(Cl)nc1Nc1cc2c(-c3cnn(C4CC4)c3)cccc2cn1 [8e, N‐(6‐Chloro‐3‐nitropyridin‐2‐yl)‐5‐(1‐cyclopropyl‐1H‐pyrazol‐4‐yl)isoquinolin‐3‐amine] | – | – | –0.40 ± 0.09 °C | mainly showed signals for unmodified USP7 and USP7asoc | mainly showed signals for unmodified USP7 and USP7asoc | – | –0.15 ± 0 °C | –0.15 ± 0 °C
